Test results as given in patent publication US9738634B2, “Heterocyclic amide compound and herbicide” (SYNGENTA PARTICIPATIONS AG, priority 2013, dated 2017).

What was measured:
Assay type in all cases: in vivo
directly sown rice [1] = assay: Test Example 3: soil treatment, effect on crop; b: directly sown rice; settings: treatment dosage 135.45 g/ha
Outline: (§1)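 Crop and weed responses were judged three weeks after a uniform surface spray of the water-diluted emulsion at the given g/ha rate. Seeds sat beneath about 1.5 cm of sterilized diluvial soil, and boxes stood in a greenhouse at 25 to 30° C.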

redroot pigweed [2] = assay: Test Example 3: weedkilling efficacy through soil treatment; L: redroot pigweed; settings: treatment dosage 135.45 g/ha
Outline: as §1

barnyard grass [3] = assay: Test Example 1: weedkilling efficacy, preemergent weed treatment in the submerged state; A: barnyard grass; settings: treatment dosage 108.36 g/ha
Outline: (§2)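 Visual scores against set criteria were taken 3 weeks after treatment. Compounds, as diluted emulsions at specified g/ha, went onto the water surface of 4 cm-flooded alluvial soil pots on the day weeds were sown and 2.5-leaf rice was transplanted; greenhouse held 25–30 °C.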

transplanted rice = assay: Test Example 1: preemergent weed treatment in the submerged state, effect on crop; a: transplanted rice; settings: treatment dosage 108.36 g/ha
Outline: as §2

birds-eye speedwell [4] = assay: Test Example 3: weedkilling efficacy through soil treatment; p: birds-eye speedwell; settings: treatment dosage 135.45 g/ha
Outline: as §1

Indian mallow [5] = assay: Test Example 4: weedkilling efficacy by foliar treatment; K: Indian mallow; settings: treatment dosage 135.45 g/ha
Protocol: (§3) Testing of Weedkilling Efficacy by Foliar Treatment
(§4) Sterilized diluvial soil was introduced into 21 cm long, 13 cm wide, 7 cm deep plastic boxes, and seeds of crabgrass, green foxtail, barnyard grass, wild oat, black-grass, Italian ryegrass, common wind-grass, Indian mallow, redroot pigweed, fig-leafed goosefoot, chickweed, catchweed, birds-eye speedwell, corn, soybean, rice, wheat, beet and rapeseed were each spot-sown, and covered with about 1.5 cm of soil, then the plants were grown in a greenhouse at 25 to 30° C.
(§5) After they had grown for 14 days, emulsions of compounds of the present invention prepared according to compounding example 2 were diluted with water to give the specified dosages, and applied uniformly onto the stem and leaf parts with a small sprayer. 3 weeks after the pesticide treatment the effect on each type of plant was investigated on the basis of the assessment criteria of test example 1.
(§6) A: barnyard grass, B: bulrush, C: oval-leafed pondweed, D: crabgrass, E: green foxtail, F: barnyard grass, G: wild oat, H: black-grass, I: Italian ryegrass, J: common wind-grass, K: Indian mallow, L: redroot pigweed, M: fig-leafed goosefoot, N: chickweed, O: catchweed, p: birds-eye speedwell, a: transplanted rice, b: directly sown rice, c: corn, d: soybean, e: wheat, f: beet, g: rapeseed
(§7) Further, pesticide dosage (g/ha) indicates the concentration regulated such that treatment was with only the stated number of grams (g), when calculated per hectare (ha).

green foxtail [6] = assay: Test Example 4: weedkilling efficacy by foliar treatment; E: green foxtail; settings: treatment dosage 135.45 g/ha
Protocol: as §3, §4, §5, §6, §7

bulrush [7] = assay: Test Example 2: weedkilling efficacy, growth period weed treatment in the submerged state; B: bulrush; settings: treatment dosage 108.36 g/ha
Outline: (§8)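 Barnyard grass, bulrush and oval-leafed pondweed sown in alluvial soil under 4 cm flooding, greenhouse 25 to 30° C. At 1-2 leaf stage, water-diluted emulsion applied to the water surface at stated g/ha dosages; effects scored 3 weeks later.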

fig-leafed goosefoot [8] = assay: Test Example 4: weedkilling efficacy by foliar treatment; M: fig-leafed goosefoot; settings: treatment dosage 135.45 g/ha
Protocol: as §3, §4, §5, §6, §7

oval-leafed pondweed [9] = assay: Test Example 1: weedkilling efficacy, preemergent weed treatment in the submerged state; C: oval-leafed pondweed; settings: treatment dosage 108.36 g/ha
Outline: as §2

directly sown rice [10] = assay: Test Example 4: foliar treatment, effect on crop; b: directly sown rice; settings: treatment dosage 135.45 g/ha
Protocol: as §3, §4, §5, §6, §7

black-grass [11] = assay: Test Example 4: weedkilling efficacy by foliar treatment; H: black-grass; settings: treatment dosage 135.45 g/ha
Protocol: as §3, §4, §5, §6, §7

Italian ryegrass [12] = assay: Test Example 3: weedkilling efficacy through soil treatment; I: Italian ryegrass; settings: treatment dosage 135.45 g/ha
Outline: as §1

green foxtail [13] = assay: Test Example 3: weedkilling efficacy through soil treatment; E: green foxtail; settings: treatment dosage 135.45 g/ha
Outline: as §1

crabgrass [14] = assay: Test Example 4: weedkilling efficacy by foliar treatment; D: crabgrass; settings: treatment dosage 135.45 g/ha
Protocol: as §3, §4, §5, §6, §7

birds-eye speedwell [15] = assay: Test Example 4: weedkilling efficacy by foliar treatment; p: birds-eye speedwell; settings: treatment dosage 135.45 g/ha
Protocol: as §3, §4, §5, §6, §7

black-grass [16] = assay: Test Example 3: weedkilling efficacy through soil treatment; H: black-grass; settings: treatment dosage 135.45 g/ha
Outline: as §1

barnyard grass [17] = assay: Test Example 2: weedkilling efficacy, growth period weed treatment in the submerged state; A: barnyard grass; settings: treatment dosage 108.36 g/ha
Outline: as §8

soybean [18] = assay: Test Example 3: soil treatment, effect on crop; d: soybean; settings: treatment dosage 135.45 g/ha
Outline: as §1

fig-leafed goosefoot [19] = assay: Test Example 3: weedkilling efficacy through soil treatment; M: fig-leafed goosefoot; settings: treatment dosage 135.45 g/ha
Outline: as §1

crabgrass [20] = assay: Test Example 3: weedkilling efficacy through soil treatment; D: crabgrass; settings: treatment dosage 135.45 g/ha
Outline: as §1

chickweed [21] = assay: Test Example 4: weedkilling efficacy by foliar treatment; N: chickweed; settings: treatment dosage 135.45 g/ha
Protocol: as §3, §4, §5, §6, §7

Italian ryegrass [22] = assay: Test Example 4: weedkilling efficacy by foliar treatment; I: Italian ryegrass; settings: treatment dosage 135.45 g/ha
Protocol: as §3, §4, §5, §6, §7

Indian mallow [23] = assay: Test Example 3: weedkilling efficacy through soil treatment; K: Indian mallow; settings: treatment dosage 135.45 g/ha
Outline: as §1

bulrush [24] = assay: Test Example 1: weedkilling efficacy, preemergent weed treatment in the submerged state; B: bulrush; settings: treatment dosage 108.36 g/ha
Outline: as §2

catchweed = assay: Test Example 4: weedkilling efficacy by foliar treatment; O: catchweed; settings: treatment dosage 135.45 g/ha
Protocol: as §3, §4, §5, §6, §7

beet = assay: Test Example 4: foliar treatment, effect on crop; f: beet; settings: treatment dosage 135.45 g/ha
Protocol: as §3, §4, §5, §6, §7

wheat [25] = assay: Test Example 4: foliar treatment, effect on crop; e: wheat; settings: treatment dosage 135.45 g/ha
Protocol: as §3, §4, §5, §6, §7

redroot pigweed [26] = assay: Test Example 4: weedkilling efficacy by foliar treatment; L: redroot pigweed; settings: treatment dosage 135.45 g/ha
Protocol: as §3, §4, §5, §6, §7

oval-leafed pondweed [27] = assay: Test Example 2: weedkilling efficacy, growth period weed treatment in the submerged state; C: oval-leafed pondweed; settings: treatment dosage 108.36 g/ha
Outline: as §8

chickweed [28] = assay: Test Example 3: weedkilling efficacy through soil treatment; N: chickweed; settings: treatment dosage 135.45 g/ha
Outline: as §1

corn [29] = assay: Test Example 3: soil treatment, effect on crop; c: corn; settings: treatment dosage 135.45 g/ha
Outline: as §1

corn [30] = assay: Test Example 4: foliar treatment, effect on crop; c: corn; settings: treatment dosage 135.45 g/ha
Protocol: as §3, §4, §5, §6, §7

soybean [31] = assay: Test Example 4: foliar treatment, effect on crop; d: soybean; settings: treatment dosage 135.45 g/ha
Protocol: as §3, §4, §5, §6, §7

wheat [32] = assay: Test Example 3: soil treatment, effect on crop; e: wheat; settings: treatment dosage 135.45 g/ha
Outline: as §1

## CC1=C(c2ccccc2)C(=O)N(C(C)(C)C(=O)Nc2cccc(C)n2)CO1 [B-2-53]
Directly sown rice [1]
  b (directly sown rice) effect on crop grade: 3 (weed kill ratio 40% or more, less than 70%)
Redroot pigweed [2]
  L (redroot pigweed) weedkilling efficacy grade: 3 (weed kill ratio 40% or more, less than 70%)
Barnyard grass [3]
  A (barnyard grass) weedkilling efficacy grade: 5 (weed kill ratio 90% or more, (practically complete withering))
Transplanted rice
  a (transplanted rice) effect on crop grade: 0 (weed kill ratio 5% or less (practically no effect))
birds-eye speedwell [4]
  P (birds-eye speedwell) weedkilling efficacy grade: 5 (weed kill ratio 90% or more, (practically complete withering))
Indian mallow [5]
  K (Indian mallow) weedkilling efficacy grade: 4 (weed kill ratio 70% or more, less than 90%)
Green foxtail [6]
  E (green foxtail) weedkilling efficacy grade: 5 (weed kill ratio 90% or more, (practically complete withering))
Bulrush [7]
  B (bulrush) weedkilling efficacy grade: 5 (weed kill ratio 90% or more, (practically complete withering))
fig-leafed goosefoot [8]
  M (fig-leafed goosefoot) weedkilling efficacy grade: 3 (weed kill ratio 40% or more, less than 70%)
oval-leafed pondweed [9]
  C (oval-leafed pondweed) weedkilling efficacy grade: 5 (weed kill ratio 90% or more, (practically complete withering))
Directly sown rice [10]
  b (directly sown rice) effect on crop grade: 4 (weed kill ratio 70% or more, less than 90%)
black-grass [11]
  H (black-grass) weedkilling efficacy grade: 5 (weed kill ratio 90% or more, (practically complete withering))
Italian ryegrass [12]
  I (Italian ryegrass) weedkilling efficacy grade: 5 (weed kill ratio 90% or more, (practically complete withering))
Green foxtail [13]
  E (green foxtail) weedkilling efficacy grade: 5 (weed kill ratio 90% or more, (practically complete withering))
Crabgrass [14]
  D (crabgrass) weedkilling efficacy grade: 5 (weed kill ratio 90% or more, (practically complete withering))
birds-eye speedwell [15]
  P (birds-eye speedwell) weedkilling efficacy grade: 4 (weed kill ratio 70% or more, less than 90%)
black-grass [16]
  H (black-grass) weedkilling efficacy grade: 5 (weed kill ratio 90% or more, (practically complete withering))
Barnyard grass [17]
  A (barnyard grass) weedkilling efficacy grade: 3 (weed kill ratio 40% or more, less than 70%)
Soybean [18]
  d (soybean) effect on crop grade: 0 (weed kill ratio 5% or less (practically no effect))
fig-leafed goosefoot [19]
  M (fig-leafed goosefoot) weedkilling efficacy grade: 4 (weed kill ratio 70% or more, less than 90%)
Crabgrass [20]
  D (crabgrass) weedkilling efficacy grade: 5 (weed kill ratio 90% or more, (practically complete withering))
Chickweed [21]
  N (chickweed) weedkilling efficacy grade: 1 (weed kill ratio 5% or more, less than 20%)
Italian ryegrass [22]
  I (Italian ryegrass) weedkilling efficacy grade: 5 (weed kill ratio 90% or more, (practically complete withering))
Indian mallow [23]
  K (Indian mallow) weedkilling efficacy grade: 0 (weed kill ratio 5% or less (practically no effect))
Bulrush [24]
  B (bulrush) weedkilling efficacy grade: 5 (weed kill ratio 90% or more, (practically complete withering))
catchweed
  O (catchweed) weedkilling efficacy grade: 3 (weed kill ratio 40% or more, less than 70%)
beet
  f (beet) effect on crop grade: 0 (weed kill ratio 5% or less (practically no effect))
Wheat [25]
  e (wheat) effect on crop grade: 1 (weed kill ratio 5% or more, less than 20%)
Redroot pigweed [26]
  L (redroot pigweed) weedkilling efficacy grade: 4 (weed kill ratio 70% or more, less than 90%)
oval-leafed pondweed [27]
  C (oval-leafed pondweed) weedkilling efficacy grade: 4 (weed kill ratio 70% or more, less than 90%)
Chickweed [28]
  N (chickweed) weedkilling efficacy grade: 0 (weed kill ratio 5% or less (practically no effect))
Corn [29]
  c (corn) effect on crop grade: 0 (weed kill ratio 5% or less (practically no effect))
Corn [30]
  c (corn) effect on crop grade: 1 (weed kill ratio 5% or more, less than 20%)
Soybean [31]
  d (soybean) effect on crop grade: 4 (weed kill ratio 70% or more, less than 90%)
Wheat [32]
  e (wheat) effect on crop grade: 2 (weed kill ratio 20% or more, less than 40%)
